Patent US20230190760A1, “ADVANTAGEOUS THERAPIES FOR DISORDERS MEDIATED BY IKAROS OR AIOLOS” (C4 Therapeutics, Inc., priority 2020, published 2023)

Legend:
[1] = test system: Caspase 3/7 activity in NCIH929 multiple myeloma cells; test: Apoptosis induction, Caspase 3/7 activity in NCIH929 cells; format: cell-based; settings: Homo sapiens, NCI-H929, 72 h, read-out: EC50, caspase 3/7 activity
Protocol: 30 μL NCIH929 cells were seeded into the 384-well plates in RPMI medium containing 10% FBS and 0.05 mM 2-mercaptoethanol at a cell density of 1000 cells per well. Cells treated in the absence of the test compound were the negative control. Following compound treatment, cells were incubated at 37° C. with 5% CO2 for 72 hr. 30 μL reconstituted Caspase 3/7 Assay detection reagent was added to each well and luminescence was acquired on EnVision™ Multilabel Reader (PerkinElmer, Santa Clara, Calif., USA).

[2] = test system: NCI-H929 multiple myeloma tumors; test: NCI-H929 multiple myeloma xenograft, NOD SCID mice (Example 13); format: in vivo; settings: 3000 μg/kg PO QD
Protocol: Compound 1 efficacy in two multiple myeloma cell lines (NC-H929) and (RPMI-8226) was evaluated at four different doses: 3 μg/kg, 10 μg/kg, 30 μg/kg, and 100 μg/kg. Compound 1 was administered QD (every day) orally (PO). […]
For the NCI-H929 cells, the xenograft study was conducted in female NOD SCID mice bearing NCI-H929 multiple myeloma tumors.
(§1) Statistical analysis was performed using two-way analysis of variance (ANOVA). Data are expressed as MTV±SEM.

[3] = test system: RPMI-8226 tumors; test: RPMI-8226 xenograft, crossover from pomalidomide to Compound 1; format: in vivo, mice; settings: 3000 μg/kg/day for 17 days
Protocol: Vehicle treated animals were treated for 28 days until tumors reached a MTV of 2211 mm^3. […] Data are expressed as MTV±SEM.
Tumor growth was monitored throughout the study. […] Measurements were twice weekly. The health of the mice was monitored, and noteworthy clinical observations were recorded. Acceptable toxicity was defined as a group's mean BW loss of less than 20% during the study and not more than one treatment related death among ten treated animals, or 10%.
Animals were weighed on a twice weekly schedule.

[4] = test system: REC1 mantle cell lymphoma tumors; test: REC1 mantle cell lymphoma xenograft, balb/c nude mice; format: in vivo; settings: Compound 1 10, 30, or 100 μg/kg; pomalidomide 3000 μg/kg; 18 days
Protocol: A xenograft study was conducted in female balb/c nude mice bearing REC1 mantle cell lymphoma tumors.
as §1

[5] = test system: TMD8 DLBCL tumors; test: TMD8 DLBCL xenograft, NOD SCID mice; format: in vivo; settings: Compound 1 100 μg/kg; pomalidomide 3000 μg/kg; 18 days
Protocol: A xenograft study was also conducted in female NOD SCID mice bearing TMD8 DLBCL tumors.
as §1

[6] = test system: OCI-LY10; test: Anti-proliferative activity, 96 hours; settings: Homo sapiens, OCI-Ly10, 96 h
[7] = test system: TMD8; test: Anti-proliferative activity, 96 hours; settings: Homo sapiens, TMD8, 96 h
[8] = test system: SU-DHL-2; test: Anti-proliferative activity, 96 hours; settings: Homo sapiens, SU-DHL-2, 96 h
[9] = test system: KARPASS422; test: Anti-proliferative activity, 96 hours
[10] = test system: Pfeiffer; test: Anti-proliferative activity, 96 hours; settings: Homo sapiens
[11] = test system: RL; test: Anti-proliferative activity, 96 hours; settings: Homo sapiens
[12] = test system: DOHH-2; test: Anti-proliferative activity, 96 hours; settings: Homo sapiens, DOHH-2, 96 h
[13] = test system: WSU-DLCL2; test: Anti-proliferative activity, 96 hours; settings: Homo sapiens, WSUDLCL2, 96 h
[14] = test system: SU-DHL-5; test: Anti-proliferative activity, 96 hours; settings: Homo sapiens, SU-DHL-5, 96 h
[15] = test system: Farage; test: Anti-proliferative activity, 96 hours
[16] = test system: SU-DHL-1; test: Anti-proliferative activity, 96 hours; settings: Homo sapiens, SU-DHL-1, 96 h
[17] = test system: KIJK; test: Anti-proliferative activity, 96 hours
[18] = test system: DL40; test: Anti-proliferative activity, 96 hours
[19] = test system: SR; test: Anti-proliferative activity, 96 hours; settings: Homo sapiens
[20] = test system: HuT 102; test: Anti-proliferative activity, 96 hours; settings: HuT-102, 96 h
[21] = test system: HH; test: Anti-proliferative activity, 96 hours; settings: Homo sapiens
[22] = test system: Mino; test: Anti-proliferative activity, 96 hours; settings: Homo sapiens
[23] = test system: Rec-1; test: Anti-proliferative activity, 96 hours; settings: Homo sapiens, Rec1, 96 h
[24] = test system: Maver-1; test: Anti-proliferative activity, 96 hours; settings: Homo sapiens, Maver1, 96 h
[25] = test system: Jeko-1; test: Anti-proliferative activity, 96 hours; settings: Homo sapiens, JeKo-1, 96 h
[26] = test system: MM.1S; test: Anti-proliferative activity, 96 hours; settings: Homo sapiens, MM1.S
[27] = test system: OPM-2; test: Anti-proliferative activity, 96 hours; settings: Homo sapiens, OPM-2, 96 h
[28] = test system: KMM-1; test: Anti-proliferative activity, 96 hours; settings: KMM-1, 96 h
[29] = test system: H929; test: Anti-proliferative activity, 96 hours; settings: Homo sapiens, NCI-H929, 96 h
[30] = test system: MM.1R; test: Anti-proliferative activity, 96 hours
[31] = test system: LP-1; test: Anti-proliferative activity, 96 hours; settings: Homo sapiens, LP-1, 96 h
[32] = test system: RPMI 8226; test: Anti-proliferative activity, 96 hours; settings: Homo sapiens, RPMI-8226, 96 h
[33] = test system: KMS-26; test: Anti-proliferative activity, 96 hours; settings: KMS-26, 96 h
[34] = test system: NCIH929 cells; test: NCI-H929 viability assay (CellTiter-Glo); settings: 96 hours
Protocol: NCIH929 cell viability was determined based on quantification of ATP using CellTiter-Glo®2.0 luminescent Assay kit, which signals the presence of metabolically-active cells. Briefly, test compound was added to 384-well plates at a top concentration of 1 μM with 10 points, half log titration in duplicates. NCIH929 cells were seeded into the 384-well plates in RPMI medium containing 10% FBS and 0.05 mM 2-mercaptoethanol at a cell density of 750 cells per well. Cells treated in the absence of the test compound were the negative control and cells treated in the absence of CellTiter-Glo® 2.0 were the positive control. Cells treated with the test compounds were incubated at 37° C. with 5% CO2 for 96 hr. CellTiter-Glo reagent was then added to the cells and Luminescence was acquired on EnVision™ Multilabel Reader (PerkinElmer, Santa Clara, Calif., USA). % Viability was determined by normalizing the signal with positive and DMSO treated negative controls on the same microtiter plate. […] Curve fit and IC502 determination was performed by 4 parametric regression analysis.

[35] = test system: IMiD-resistant NCIH929 cells; test: Growth of IMiD-resistant NCIH929 cells (CellTiter-Glo); settings: at concentrations up to 10 μM
Protocol: Briefly, test compound was added to 384-well plates at a top concentration of 10 μM with 14 points, half log titration in duplicates. NCIH929 cells were seeded into the 384-well plates in RPMI medium containing 10% FBS and 0.05 mM 2-mercaptoethanol at a cell density of 750 cells per well. Cells treated in the absence of the test compound were the negative control and cells treated in the absence of CellTiter-Glo® 2.0 were the positive control. Cells treated with the test compounds were incubated at 37° C. with 5% CO2 for 96 hr. CellTiter-Glo reagent was then added to the cells and luminescence was acquired on EnVision™ Multilabel Reader (PerkinElmer, Santa Clara, Calif., USA). % Viability was determined by normalizing the signal with positive and DMSO treated negative controls on the same microtiter plate.

[36] = test system: Caspase 3/7 activity in TMD8 cells; test: Apoptosis induction, Caspase 3/7 activity in TMD8 cells; settings: Homo sapiens, TMD8, 48 h, read-out: EC50, caspase 3/7 activity
Protocol: 30 μL TMD8 cells were seeded into the 384-well plates in RPMI medium containing 10% FBS at a cell density of 2000 cells per well. Cells treated in the absence of the test compound were the negative control. Following compound treatment, cells were incubated at 37° C. with 5% CO2 for 48 hr. 30 μL reconstituted Caspase 3/7 Assay detection reagent was added to each well and luminescence was acquired on EnVision™ Multilabel Reader (PerkinElmer, Santa Clara, Calif., USA).

[37] = target: IKZF1 (Homo sapiens, UniProt Q13422+Q96SW2)
IKZF1, sequence (Q13422 whole entry): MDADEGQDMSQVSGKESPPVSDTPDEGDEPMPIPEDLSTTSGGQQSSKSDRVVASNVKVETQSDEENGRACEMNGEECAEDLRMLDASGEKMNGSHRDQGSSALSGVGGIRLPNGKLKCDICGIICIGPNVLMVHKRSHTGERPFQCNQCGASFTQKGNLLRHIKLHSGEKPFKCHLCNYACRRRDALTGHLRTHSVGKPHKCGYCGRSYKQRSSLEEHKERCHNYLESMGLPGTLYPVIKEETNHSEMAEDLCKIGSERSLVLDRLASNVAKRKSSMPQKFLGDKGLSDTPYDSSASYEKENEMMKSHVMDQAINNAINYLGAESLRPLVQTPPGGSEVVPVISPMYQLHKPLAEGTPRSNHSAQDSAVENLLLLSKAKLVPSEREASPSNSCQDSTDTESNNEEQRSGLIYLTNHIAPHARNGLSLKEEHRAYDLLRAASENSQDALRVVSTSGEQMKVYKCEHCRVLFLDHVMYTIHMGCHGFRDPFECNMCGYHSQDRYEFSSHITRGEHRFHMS
IKZF1, sequence (Q96SW2 whole entry): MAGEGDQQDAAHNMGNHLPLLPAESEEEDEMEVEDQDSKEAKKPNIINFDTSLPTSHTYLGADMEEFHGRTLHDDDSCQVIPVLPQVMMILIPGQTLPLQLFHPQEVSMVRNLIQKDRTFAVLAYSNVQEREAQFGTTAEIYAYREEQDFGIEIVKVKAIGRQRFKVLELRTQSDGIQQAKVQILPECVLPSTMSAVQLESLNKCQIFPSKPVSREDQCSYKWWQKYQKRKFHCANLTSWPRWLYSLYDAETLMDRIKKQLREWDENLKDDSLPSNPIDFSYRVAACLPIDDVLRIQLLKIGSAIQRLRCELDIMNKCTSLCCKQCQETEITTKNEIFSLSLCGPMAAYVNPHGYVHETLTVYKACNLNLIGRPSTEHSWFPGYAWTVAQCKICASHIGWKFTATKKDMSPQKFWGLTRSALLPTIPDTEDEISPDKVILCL
IKZF1, sequence (Q16531 2-1140 partner limits assumed): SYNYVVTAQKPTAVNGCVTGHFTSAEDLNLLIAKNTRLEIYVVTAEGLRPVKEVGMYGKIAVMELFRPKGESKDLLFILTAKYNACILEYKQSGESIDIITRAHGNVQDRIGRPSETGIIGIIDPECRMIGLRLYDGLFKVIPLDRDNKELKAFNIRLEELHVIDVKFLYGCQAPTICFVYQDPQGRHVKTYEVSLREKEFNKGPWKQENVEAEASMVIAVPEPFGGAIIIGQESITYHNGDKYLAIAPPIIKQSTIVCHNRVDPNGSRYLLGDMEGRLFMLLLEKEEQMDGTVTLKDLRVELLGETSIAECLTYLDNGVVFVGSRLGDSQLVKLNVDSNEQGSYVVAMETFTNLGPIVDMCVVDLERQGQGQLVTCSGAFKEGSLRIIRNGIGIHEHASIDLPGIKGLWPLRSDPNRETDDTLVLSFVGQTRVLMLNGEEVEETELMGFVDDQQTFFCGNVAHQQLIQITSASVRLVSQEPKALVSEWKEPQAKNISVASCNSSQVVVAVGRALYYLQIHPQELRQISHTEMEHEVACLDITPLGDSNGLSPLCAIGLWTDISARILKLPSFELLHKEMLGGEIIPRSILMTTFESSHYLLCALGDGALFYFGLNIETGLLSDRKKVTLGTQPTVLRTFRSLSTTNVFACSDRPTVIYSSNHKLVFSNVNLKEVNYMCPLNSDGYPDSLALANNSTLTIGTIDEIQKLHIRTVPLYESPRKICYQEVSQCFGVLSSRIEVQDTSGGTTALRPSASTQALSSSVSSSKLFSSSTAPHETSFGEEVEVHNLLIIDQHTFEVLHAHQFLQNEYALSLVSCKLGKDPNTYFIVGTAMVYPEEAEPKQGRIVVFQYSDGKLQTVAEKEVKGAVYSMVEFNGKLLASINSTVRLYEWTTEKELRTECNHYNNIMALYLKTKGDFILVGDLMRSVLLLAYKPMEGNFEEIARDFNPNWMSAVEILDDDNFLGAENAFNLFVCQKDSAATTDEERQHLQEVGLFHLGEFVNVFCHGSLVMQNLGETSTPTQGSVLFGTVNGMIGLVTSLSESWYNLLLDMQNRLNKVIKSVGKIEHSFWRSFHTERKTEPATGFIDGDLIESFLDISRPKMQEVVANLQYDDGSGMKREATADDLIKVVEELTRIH
Protocol: Endogenous expression of IKZF1 in NCIH929 cells was determined by addition of N-terminal HiBiT tag to the NCIH929 cell line using CRISPR-Cas9. Briefly, test compound was added to 384-well plates at a top concentration of 1 μM with 10 points, half log titration in duplicates. NCIH929 cells expressing HiBiT-tagged IKZF1 were seeded into the 384-well plates in RPMI medium containing 10% FBS and 0.05 mM 2-mercaptoethanol at a cell density of 15000 cells per well. Cells treated in the absence of the test compound were the negative control and wells containing media only were the positive control. Following compound treatment, cells were incubated at 37° C. with 5% CO2 for 1.5 hr. HiBiT signal was determined using Nano-Glo™ HiBiT Lytic Assay System (Promega, N3050) and luminescence was acquired on EnVision™ Multilabel Reader (PerkinElmer, Santa Clara, Calif., USA). % IKZF1 remaining was determined by normalizing the signal with positive and negative controls on the same microtiter plate. […] Curve fit and IC50 determination was performed by 4 parametric regression analysis.
NCIH929 cells expressing HiBiT-tagged IKZF1 were seeded into the 384-well plates in RPMI medium containing 10% FBS and 0.05 mM 2-mercaptoethanol at a cell density of 15000 cells per well. Cells treated in the absence of the test compound were the negative control and wells containing media only were the positive control. Following compound treatment, cells were incubated at 37° C. with 5% CO2 for 1 or 2 hr. HiBiT signal was determined using Nano-Glo™ HiBiT Lytic Assay System (Promega, N3050) and luminescence was acquired on EnVision™ Multilabel Reader (PerkinElmer, Santa Clara, Calif., USA). % IKZF1 remaining was determined by normalizing the signal with positive and negative controls on the same microtiter plate. Curve fit and IC50 determination was performed by 4 parametric regression analysis.

EC50 [1]: 407 nM
IC50 [6]: 47.7 nM
IC50 [8]: > 10000 nM
IC50 [9]: 24.4 nM
IC50 [14]: > 10000 nM
IC50 [16]: 378 nM
IC50 [26]: 71 nM
IC50 [29]: 171 nM
IC50 [30]: 193 nM
IC50 ([34]; read-out: Mean IC50 (nM), H929 Viability): 141 nM
EC50 [36]: 1200 nM
Emax ([37]; NCI-H929, read-out: Mean Emax (%) ± SD, IKZF1 Degradation): 55.7 ± 6%
IKZF1 degradation ([37]; after 1 hour treatment): less than 25%
Structure (SMILES): Nc1cccc2c1C(=O)N(C1CCC(=O)NC1=O)C2=O (stereo not drawn) [Pomalidomide, reference compound]
Statistical Significance Compared to Vehicle [2]: 0.718
tumor response [3]: no response
tumor volume [4]: increased
tumor volume [5]: increased
IC50 [7]: 327 nM
IC50 [10]: > 10000 nM
IC50 [11]: > 10000 nM
IC50 [12]: 1150 nM
IC50 [13]: > 10000 nM
IC50 [15]: > 10000 nM
IC50 [17]: 4330 nM
IC50 [18]: > 10000 nM
IC50 [19]: > 10000 nM
IC50 [20]: > 10000 nM
IC50 [21]: > 10000 nM
IC50 [22]: 426 nM
IC50 [23]: 44.8 nM
IC50 [24]: > 10000 nM
IC50 [25]: > 10000 nM
IC50 [27]: 93.3 nM
IC50 [28]: 527 nM
IC50 [31]: 576 nM
IC50 [32]: > 10000 nM
IC50 [33]: 2090 nM
Mean Emax (%) ± SD, H929 Viability ([34]; % viability): 15.6 ± 4.2%
growth inhibition [35]: less than 50%
